According to patent publication US10570129B2 (Zoetis Services LLC, priority 2015, dated 2020):

Columns and labels:
Haemonchus contortus L3 = experiment: microbe, parasite or virus in culture; type: cell-based; details: Haemonchus contortus, 96 h, read-out: HcL3 Minimal Effective Concentration (MEC)
D. immitis microfilariae = experiment: Dirofilaria immitis, microfilariae (DiMF) in vitro motility assay; type: cell-based; details: Dirofilaria immitis, 72 h, read-out: DiMF minimally effective dose (MEC)

SMILES | minimal effective concentration (Haemonchus contortus L3) | minimal effective concentration (D. immitis microfilariae)
O=C(NCc1ccnc(Cl)c1)n1c2c(c3ccc(Cl)cc31)CN(C/C=C/c1ccc(F)cc1F)CC2 [Example 209, (E)-7-chloro-N-((2-chloropyridin-4-yl)methyl)-2-(3-(2,4-difluorophenyl)-allyl)-1,2,3,4-tetrahydro-5H-pyrido[4,3-b]indole-5-carboxamide] | > 100 µM | 33 µM
O=C(NCc1ccnc(F)c1)n1c2c(c3ccc(C(F)(F)F)cc31)CN(C/C=C/c1ccc(Cl)c(Cl)c1)CC2 [Example 166, (E)-2-(3-(3,4-dichlorophenyl)allyl)-N-((2-fluoropyridin-4-yl)methyl)-7-(trifluoromethyl)-1,2,3,4-tetrahydro-5H-pyrido[4,3-b]indole-5-carboxamide] | 10 µM | 5.7 µM
O=C(NCc1ccnc(F)c1)n1c2c(c3cc(OC(F)(F)F)ccc31)CN(C/C=C/c1ccc(F)cc1F)CC2 [Example 403, (E)-2-(3-(2,4-difluorophenyl)allyl)-N-((2-fluoropyridin-4-yl)methyl)-8-(trifluoromethoxy)-1,2,3,4-tetrahydro-5H-pyrido[4,3-b]indole-5-carboxamide] | 0.3 µM | 18.2 µM
COc1cc(CNC(=O)n2c3c(c4cc(C#N)ccc42)CN(C/C=C/c2ccc(F)c(Cl)c2)CC3)ccn1 [Example 68, (E)-2-(3-(3-chloro-4-fluorophenyl)allyl)-8-cyano-N-((2-methoxypyridin-4-yl)methyl)-1,2,3,4-tetrahydro-5H-pyrido[4,3-b]indole-5-carboxamide] | 0.01 µM | 0.03 µM
CS(=O)(=O)c1ccc2c(c1)c1c(n2C(=O)NCc2ccnc(Cl)c2)CCN(C/C=C/c2ccc(F)cc2F)C1 [Example 456, (E)-N-((2-chloropyridin-4-yl)methyl)-2-(3-(2,4-difluorophenyl)allyl)-8-(methylsulfonyl)-1,2,3,4-tetrahydro-5H-pyrido[4,3-b]indole-5-carboxamide] | 1.3 µM | 10 µM
O=C(NCc1ccnc(Cl)c1)n1c2c(c3cc(F)c(Cl)cc31)CN(C/C=C/c1cc(F)cc(F)c1)CC2 [Example 302, (E)-7-chloro-N-((2-chloropyridin-4-yl)methyl)-2-(3-(3,5-difluorophenyl)-allyl)-8-fluoro-1,2,3,4-tetrahydro-5H-pyrido[4,3-b]indole-5-carboxamide] | 0.3 µM | 5.7 µM
O=C(NCc1ccnc(Cl)c1)n1c2c(c3ccc(OC(F)(F)F)cc31)CN(C/C=C/c1ccc(OC(F)(F)F)cc1)CC2 [Example 360, (E)-N-((2-chloropyridin-4-yl)methyl)-7-(trifluoromethoxy)-2-(3-(4-(trifluoro-methoxy)phenyl)allyl)-1,2,3,4-tetrahydro-5H-pyrido[4,3-b]indole-5-carboxamide] | 7.7 µM | 13.6 µM
O=C(NCc1ccnc(Cl)c1)n1c2c(c3c(Cl)c(F)ccc31)CN(C/C=C/c1ccc(Cl)cc1)CC2 [Example 305, (E)-9-chloro-2-(3-(4-chlorophenyl)allyl)-N-((2-chloropyridin-4-yl)methyl)-8-fluoro-1,2,3,4-tetrahydro-5H-pyrido[4,3-b]indole-5-carboxamide] | 0.9 µM | 16.5 µM
N#Cc1ccc2c(c1)c1c(n2C(=O)NCc2ccnc(F)c2)CCN(C/C=C/c2ccc(F)c(C#N)c2)C1 [Example 113, (E)-8-cyano-2-(3-(3-cyano-4-fluorophenyl)allyl)-N-((2-fluoropyridin-4-yl)methyl)-1,2,3,4-tetrahydro-5H-pyrido[4,3-b]indole-5-carboxamide] | 1.3 µM | > 100 µM
N#Cc1ccc2c3c(n(C(=O)NCc4ccnc(Cl)c4)c2c1)CCN(C/C=C/c1c(F)c(F)c(F)c(F)c1F)C3 [Example 16, (E)-N-((2-chloropyridin-4-yl)methyl)-7-cyano-2-(3-(perfluorophenyl)allyl)-1,2,3,4-tetrahydro-5H-pyrido[4,3-b]indole-5-carboxamide] | > 100 µM | > 100 µM
O=C(NCc1ccnc(F)c1)n1c2c(c3cc(Br)ccc31)CN(C/C=C/c1ccc(F)c(F)c1)CC2 [Example 191, (E)-8-bromo-2-(3-(3,4-difluorophenyl)allyl)-N-((2-fluoropyridin-4-yl)methyl)-1,2,3,4-tetrahydro-5H-pyrido[4,3-b]indole-5-carboxamide] | 0.3 µM | 10 µM
O=C(NCc1ccnc(Cl)c1)n1c2c(c3cc(F)c(Cl)cc31)CN(C/C=C/c1ccc(Cl)c(F)c1)CC2 [Example 297, (E)-7-chloro-2-(3-(4-chloro-3-fluorophenyl)allyl)-N-((2-chloropyridin-4-yl)methyl)-8-fluoro-1,2,3,4-tetrahydro-5H-pyrido[4,3-b]indole-5-carboxamide] | 0.3 µM | > 100 µM
O=C(NCc1ccnc(F)c1)n1c2c(c3cc(Cl)ccc31)CN(C/C=C/c1ccc(Cl)c(Cl)c1)CC2 [Example 261, (E)-8-chloro-2-(3-(3,4-dichlorophenyl)allyl)-N-((2-fluoropyridin-4-yl)methyl)-1,2,3,4-tetrahydro-5H-pyrido[4,3-b]indole-5-carboxamide] | 1 µM | 10 µM
O=C(NCc1ccnc(Cl)c1)n1c2c(c3cc(Cl)c(Cl)cc31)CN(C/C=C/c1ccc(F)cc1F)CC2 [Example 276, (E)-7,8-dichloro-N-((2-chloropyridin-4-yl)methyl)-2-(3-(2,4-difluorophenyl)allyl)-1,2,3,4-tetrahydro-5H-pyrido[4,3-b]indole-5-carboxamide] | 0.3 µM | 18.2 µM
COc1ccc(/C=C/CN2CCc3c(c4cc(OC(F)(F)F)ccc4n3C(=O)NCc3ccnc(Cl)c3)C2)cc1 [Example 394, (E)-N-((2-chloropyridin-4-yl)methyl)-2-(3-(4-methoxyphenyl)allyl)-8-(trifluoromethoxy)-1,2,3,4-tetrahydro-5H-pyrido[4,3-b]indole-5-carboxamide] | 1 µM | 6.9 µM
N#Cc1ccc(-c2ccc3c(c2)c2c(n3C(=O)NCc3ccnc(F)c3)CCN(C/C=C/c3ccc(Cl)cc3)C2)cn1 [Example 460, (E)-2-(3-(4-chlorophenyl)allyl)-8-(6-cyanopyridin-3-yl)-N-((2-fluoropyridin-4-yl)methyl)-1,2,3,4-tetrahydro-5H-pyrido[4,3-b]indole-5-carboxamide] | > 100 µM | 57.4 µM
COc1ccc(/C=C/CN2CCc3c(c4cc(Cl)c(Cl)cc4n3C(=O)NCc3ccnc(Cl)c3)C2)cc1 [Example 283, (E)-7,8-dichloro-N-((2-chloropyridin-4-yl)methyl)-2-(3-(4-methoxyphenyl)allyl)-1,2,3,4-tetrahydro-5H-pyrido[4,3-b]indole-5-carboxamide] | 0.5 µM | 3.3 µM
O=C(NCc1ccnc(Cl)c1)n1c2c(c3cc(OC(F)(F)F)c(F)cc31)CN(C/C=C/c1ccc(Cl)cc1)CC2 [Example 495, (E)-2-(3-(4-chlorophenyl)allyl)-N-((2-chloropyridin-4-yl)methyl)-7-fluoro-8-(trifluoromethoxy)-1,2,3,4-tetrahydro-5H-pyrido[4,3-b]indole-5-carboxamide] | 1 µM | 10 µM
